Holding throughout (format): cell-based
The target of test [1] is T1, human GLP-1 receptor (GLP-1R) (Homo sapiens, UniProt P43220).
T1 construct: expressed in transfected cells
Nature of the test: cAMP assay, human GLP-1R cells. The method in brief: (§1)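 Peptide-stimulated cAMP measured by two-step HTRF after a 30 min room-temperature incubation with receptor-expressing cells (hGLP-1R, hGIPR at 1×10^5 cells/ml; hGCGR at 2×10^5 cells/ml). Duplicate dilutions; EC50 from 4-parameter logistic fit of % Delta F.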
(In general: cAMP levels reflect the balance of adenylyl cyclase and phosphodiesterase activity.)

Test [2] addresses T2, human glucagon receptor (GCGR) (Homo sapiens, UniProt P47871).
T2 construct: expressed in transfected cells
The experiment in a line: cAMP assay, human GCGR cells. The method in brief: as §1

Test [3] has as its target T3, human glucose-dependent insulinotropic peptide receptor (GIPR) (Homo sapiens, UniProt P48546).
T3 construct: expressed in transfected cells
T3 sequence (P48546 22-466): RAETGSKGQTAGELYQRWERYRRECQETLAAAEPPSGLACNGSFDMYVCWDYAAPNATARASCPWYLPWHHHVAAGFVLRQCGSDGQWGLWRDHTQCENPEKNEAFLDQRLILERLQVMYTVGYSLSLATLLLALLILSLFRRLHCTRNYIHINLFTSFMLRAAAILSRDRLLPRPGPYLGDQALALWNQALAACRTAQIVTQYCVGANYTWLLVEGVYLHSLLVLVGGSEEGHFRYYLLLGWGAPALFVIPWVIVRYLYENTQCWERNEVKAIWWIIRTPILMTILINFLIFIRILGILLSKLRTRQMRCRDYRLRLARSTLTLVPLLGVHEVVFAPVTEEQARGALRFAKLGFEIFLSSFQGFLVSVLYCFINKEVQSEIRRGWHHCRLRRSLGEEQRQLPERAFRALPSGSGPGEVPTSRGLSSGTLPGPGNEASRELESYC
Nature of the test: cAMP assay, human GIPR cells. An outline of the steps:
as §1

The target of a further test is T4, GLP-1R (INS1e assay) (Rattus norvegicus, UniProt P32301).
T4 construct: endogenous in cells; host or cells: INS-1E cells
T4 sequence (P32301 22-463): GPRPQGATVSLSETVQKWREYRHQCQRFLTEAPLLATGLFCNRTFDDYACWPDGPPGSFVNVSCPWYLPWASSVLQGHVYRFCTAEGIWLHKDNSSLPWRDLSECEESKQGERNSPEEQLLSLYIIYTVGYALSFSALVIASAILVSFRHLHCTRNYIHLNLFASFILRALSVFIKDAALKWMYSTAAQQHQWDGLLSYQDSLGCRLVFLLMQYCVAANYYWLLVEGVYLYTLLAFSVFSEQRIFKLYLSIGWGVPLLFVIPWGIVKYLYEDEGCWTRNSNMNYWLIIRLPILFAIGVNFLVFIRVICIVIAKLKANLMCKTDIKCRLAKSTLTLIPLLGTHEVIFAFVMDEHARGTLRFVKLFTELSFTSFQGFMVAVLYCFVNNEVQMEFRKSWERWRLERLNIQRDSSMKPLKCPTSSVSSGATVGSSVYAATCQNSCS
Nature of the test: INS1e assay, cAMP activity at GLP-1R. The method in brief: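 It pairs cAMP-d2 acceptor with anti-cAMP cryptate donor, both prepared 1/20 in conjugate/lysis buffer, applied as a two-step protocol.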

The mark [4] stands for this setting: first run (n1), cAMP activity, read-out: Primary assay EC50 GLP-1R n1.
Setting [5] is: mean of n1 and n2, read-out: Mean pM GLP-1R.
Setting [6] is: second run (n2), cAMP activity, read-out: Primary assay EC50 GLP-1R n2.
The mark [7] stands for this setting: first run (n1), cAMP activity of substituted and mono-lipidated peptides, read-out: Primary assay EC50 Gluc-R.
The mark [8] stands for this setting: second run (n2), cAMP activity, read-out: Primary assay EC50 Gluc-R.
Where [9] appears, read: first run (n1), cAMP activity, read-out: Primary assay EC50 GIP-R.
The mark [10] stands for this setting: second run (n2), cAMP activity, read-out: Primary assay EC50 GIP-R.
[11] abbreviates: mono-lipidated peptides, mean of n1 and n2, read-out: INS1e assay EC50 Mean pM GLP-1R.
The mark [12] stands for this setting: mono-lipidated peptides, replicate n1, read-out: INS1e assay EC50 GLP-1R n1.
The mark [13] stands for this setting: mono-lipidated peptides, replicate n2, read-out: INS1e assay EC50 GLP-1R n2.

Read-outs that look alike come from different tables or passages of the source. Numbered stars: 1 amine (or outer) side, 2 acyl side, 3 side chain; on linkers, the order of the positions; unused ones are H or OH. Square brackets hold non-standard residues; d marks the D form. Side chains are listed from the residue outwards. Peptide text beside a SMILES is read from it. * marks the point of attachment. γGlu = O=C(O)[C@H](CCC(=O)[*:2])N[*:1]; αMeF = C[C@](N)(Cc1ccccc1)C(=O)O; αMeK = C[C@](N)(CCCCN)C(=O)O; Lauroyl = CCCCCCCCCCCC(=O)*; αMeS = C[C@](N)(CO)C(=O)O; AEEA = NCCOCCOCC(=O)O; Aib = CC(C)(N)C(=O)O Some results are limits rather than exact numbers.

T1 sequence (P43220 24-463): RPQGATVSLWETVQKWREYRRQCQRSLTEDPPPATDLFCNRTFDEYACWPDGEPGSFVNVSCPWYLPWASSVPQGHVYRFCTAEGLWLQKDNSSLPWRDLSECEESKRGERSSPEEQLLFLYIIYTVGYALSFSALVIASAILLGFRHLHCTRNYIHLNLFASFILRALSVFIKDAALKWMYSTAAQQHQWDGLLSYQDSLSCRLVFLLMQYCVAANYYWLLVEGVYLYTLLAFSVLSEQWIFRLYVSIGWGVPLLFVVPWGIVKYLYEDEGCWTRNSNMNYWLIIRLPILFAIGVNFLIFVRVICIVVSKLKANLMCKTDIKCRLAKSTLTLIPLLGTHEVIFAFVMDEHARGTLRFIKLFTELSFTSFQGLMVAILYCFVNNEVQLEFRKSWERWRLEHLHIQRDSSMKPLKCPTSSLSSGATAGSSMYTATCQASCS
T2 sequence (P47871 26-477): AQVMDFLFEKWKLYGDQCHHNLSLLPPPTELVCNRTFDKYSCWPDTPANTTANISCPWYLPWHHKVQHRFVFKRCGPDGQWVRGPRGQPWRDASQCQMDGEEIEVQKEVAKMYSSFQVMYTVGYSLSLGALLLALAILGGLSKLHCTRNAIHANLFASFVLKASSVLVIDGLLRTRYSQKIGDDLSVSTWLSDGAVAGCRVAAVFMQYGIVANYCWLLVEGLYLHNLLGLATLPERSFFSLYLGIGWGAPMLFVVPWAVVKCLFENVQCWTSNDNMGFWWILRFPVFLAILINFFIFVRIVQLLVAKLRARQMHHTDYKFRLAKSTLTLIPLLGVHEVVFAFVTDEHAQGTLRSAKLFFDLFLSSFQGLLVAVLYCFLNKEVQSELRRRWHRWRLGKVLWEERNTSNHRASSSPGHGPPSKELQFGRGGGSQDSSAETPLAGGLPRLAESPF

On to `CCCCCCCCCCCCCCCCCC(=O)NCCOCCOCC(=O)NCCOCCOCC(=O)NCCCC[C@H](NC(=O)[C@@H](NC(=O)[C@@H](NC(=O)[C@](C)(Cc1ccccc1)NC(=O)[C@H](C)NC(=O)[C@@H](NC(=O)[C@](C)(Cc1ccccc1)NC(=O)[C@H](CCC(=O)O)NC(=O)[C@](C)(CCCCN)NC(=O)[C@H](C)NC(=O)[C@H](C)NC(=O)[C@H](CCC(=O)O)NC(=O)CNC(=O)[C@H](CCC(=O)O)NC(=O)[C@H](CC(C)C)NC(=O)[C@](C)(Cc1ccccc1)NC(=O)[C@H](CO)NC(=O)[C@](C)(CO)NC(=O)[C@@H](NC(=O)[C@H](CC(=O)O)NC(=O)[C@H](CO)NC(=O)[C@@H](NC(=O)[C@](C)(Cc1ccccc1)NC(=O)[C@H](CO)NC(=O)CNC(=O)[C@H](CCC(=O)O)NC(=O)C(C)(C)NC(=O)[C@@H](N)Cc1c[nH]cn1)[C@@H](C)O)C(C)C)[C@@H](C)CC)C(C)C)C(C)C)C(=O)NCC(=O)NCC(N)=O` [compound 189], for which the EC50 is 30 pM in test [1] (setting [4]); 20.8 pM in test [1] (setting [5]); 12 pM in test [1] (setting [6]); at least 27 nM in test [2] (setting [7]); at least 27 nM in test [2] (setting [8]); at least 27 nM in test [3] (setting [9]). Also, the EC50 in test [3] (setting [10]) was at least 27 nM; at GLP-1R (INS1e assay) (setting [11]), 144 pM; on GLP-1R (INS1e assay) (setting [12]) it was 114 pM; on GLP-1R (INS1e assay) (setting [13]), 173 pM.
Turning to `CCCCCCCCCCCCCCCCCC(=O)NCCOCCOCC(=O)NCCOCCOCC(=O)NCCOCCOCC(=O)NCCCC[C@H](NC(=O)[C@@H](NC(=O)[C@@H](NC(=O)[C@](C)(Cc1ccccc1)NC(=O)[C@H](C)NC(=O)[C@@H](NC(=O)[C@](C)(Cc1ccccc1)NC(=O)[C@H](CCC(=O)O)NC(=O)[C@](C)(CCCCN)NC(=O)[C@H](C)NC(=O)[C@H](C)NC(=O)[C@H](CCC(=O)O)NC(=O)CNC(=O)[C@H](CCC(=O)O)NC(=O)[C@H](CC(C)C)NC(=O)[C@](C)(Cc1ccccc1)NC(=O)[C@H](CO)NC(=O)[C@](C)(CO)NC(=O)[C@@H](NC(=O)[C@H](CC(=O)O)NC(=O)[C@H](CO)NC(=O)[C@@H](NC(=O)[C@](C)(Cc1ccccc1)NC(=O)[C@H](CO)NC(=O)CNC(=O)[C@H](CCC(=O)O)NC(=O)C(C)(C)NC(=O)[C@@H](N)Cc1c[nH]cn1)[C@@H](C)O)C(C)C)[C@@H](C)CC)C(C)C)C(C)C)C(=O)NCC(=O)NCC(N)=O` [compound 190], the EC50 in test [1] (setting [4]) was 9.7 pM; in test [1] (setting [5]), 7.2 pM; in test [1] (setting [6]), 4.7 pM; in test [2] (setting [7]), at least 26 nM; in test [2] (setting [8]), at least 26 nM; in test [3] (setting [9]), at least 26 nM. Besides, the EC50 in test [3] (setting [10]) is at least 26 nM; on GLP-1R (INS1e assay) (setting [11]) it was 44.1 pM; on GLP-1R (INS1e assay) (setting [12]), 39.7 pM; at GLP-1R (INS1e assay) (setting [13]), 48.5 pM.
In the case of `CC[C@H](C)[C@H](NC(=O)[C@](C)(Cc1ccccc1)NC(=O)[C@H](CCC(=O)O)NC(=O)[C@](C)(CCCCN)NC(=O)[C@H](C)NC(=O)[C@H](C)NC(=O)[C@H](CCC(=O)O)NC(=O)CNC(=O)[C@H](CCC(=O)O)NC(=O)[C@H](CC(C)C)NC(=O)[C@](C)(Cc1ccccc1)NC(=O)[C@H](CO)NC(=O)[C@](C)(CO)NC(=O)[C@@H](NC(=O)[C@H](CC(=O)O)NC(=O)[C@H](CO)NC(=O)[C@@H](NC(=O)[C@](C)(Cc1ccccc1)NC(=O)[C@H](CO)NC(=O)CNC(=O)[C@H](CCC(=O)O)NC(=O)C(C)(C)NC(=O)[C@@H](N)Cc1c[nH]cn1)[C@@H](C)O)C(C)C)C(=O)N[C@@H](C)C(=O)N[C@@](C)(Cc1ccccc1)C(=O)N[C@H](C(=O)N[C@H](C(=O)N[C@@H](CCCCNC(=O)COCCOCCNC(=O)COCCOCCNC(=O)CCCCCCCCCCCCCCCCC(=O)O)C(=O)NCC(=O)NCC(N)=O)C(C)C)C(C)C` [compound 198], the EC50 in test [1] (setting [4]) is 41 pM; in test [1] (setting [5]), 27.9 pM; in test [1] (setting [6]), 15 pM; in test [2] (setting [7]) it was at least 26 nM; in test [2] (setting [8]) it was at least 26 nM; in test [3] (setting [9]) it was at least 26 nM. The EC50 is at least 26 nM in test [3] (setting [10]), 1140 pM on GLP-1R (INS1e assay) (setting [11]), 1380 pM at GLP-1R (INS1e assay) (setting [12]) and 890 pM on GLP-1R (INS1e assay) (setting [13]).
For `CCCCCCCCCCCC(=O)N[C@@H](CCC(=O)NCCOCCOCC(=O)NCCOCCOCC(=O)NCCCC[C@H](NC(=O)[C@H](C)NC(=O)[C@@H](NC(=O)[C@H](Cc1ccc(OC)cc1)NC(=O)[C@H](CCC(=O)O)NC(=O)[C@](C)(CCCCN)NC(=O)[C@H](C)NC(=O)[C@H](C)NC(=O)[C@H](CCC(=O)O)NC(=O)CNC(=O)[C@H](CCC(=O)O)NC(=O)[C@H](CC(C)C)NC(=O)[C@H](CCCCNC(=O)COCCOCCNC(=O)COCCOCCNC(=O)CC[C@H](NC(=O)CCCCCCCCCCC)C(=O)O)NC(=O)[C@H](CO)NC(=O)[C@](C)(CO)NC(=O)[C@@H](NC(=O)[C@H](CC(=O)O)NC(=O)[C@H](CO)NC(=O)[C@@H](NC(=O)[C@](C)(Cc1ccccc1)NC(=O)[C@H](CO)NC(=O)CNC(=O)[C@H](CCC(=O)O)NC(=O)C(C)(C)NC(=O)[C@@H](N)Cc1c[nH]cn1)[C@@H](C)O)C(C)C)[C@@H](C)CC)C(=O)N[C@H](C(=O)N[C@H](C(=O)N[C@@H](CCC(=O)O)C(=O)NCC(=O)NCC(N)=O)C(C)C)C(C)C)C(=O)O` [compound 406] (H-H[Aib]EGS[αMeF]TSDV[αMeS]SK([AEEA-AEEA-γGlu-Lauroyl])LEGEAA[αMeK]EY(Me)IAK([AEEA-AEEA-γGlu-Lauroyl])VVEGG-NH2; N-terminus assumed), the EC50 in test [1] (bis-lipidated peptides, replicate n1, read-out: Primary assay EC50 GLP-1R n1) was 2.19 pM; in test [1] (bis-lipidated peptides, replicate n2, read-out: Primary assay EC50 GLP-1R n2) it was 2.31 pM; in test [2] (bis-lipidated peptides, first replicate, read-out: Primary assay EC50 Gluc-R (n1)) it was at least 21.5 nM; in test [3] (bis-lipidated peptides, first replicate, read-out: Primary assay EC50 GIP-R (n1)), at least 21.5 nM; at GLP-1R (INS1e assay) (bis-lipidated peptides, mean of n1 and n2, read-out: INS1e assay EC50 Mean pM GLP-1R) it was 94 pM; at GLP-1R (INS1e assay) (bis-lipidated peptides, replicate n1, read-out: INS1e assay EC50 GLP-1R n1), 101 pM. In addition, the EC50 at GLP-1R (INS1e assay) (bis-lipidated peptides, replicate n2, read-out: INS1e assay EC50 GLP-1R n2) worked out at 87.2 pM.

The values above are taken from patent US10414811B2, “Protease-resistant lipidated GLP-1 analogs” (MEDIMMUNE LIMITED, priority 2015, dated 2019).
